From PMC7730182, “Synthesis and in Silico Modelling of the Potential Dual Mechanistic Activity of Small Cationic Peptides Potentiating the Antibiotic Novobiocin against Susceptible and Multi-Drug Resistant Escherichia coli” (International Journal of Molecular Sciences, 2020)

Assays:
Format in all cases: cell-based, Escherichia coli
[1] = test system: susceptible E. coli NCTC 10418; assay: Novobiocin potentiation assay (MIC of novobiocin with fixed concentration of peptide or PAβN); parameters: key to MIC of Novobiocin, E. coli NCTC 10418, +128 μg/mL added peptide / MIC of Novobiocin, E. coli NCTC 10418, +32 μg/mL added peptide: Non potentiating (NP) indicated no reduction in the MIC of novobiocin was observed; settings: for MIC of Novobiocin, E. coli NCTC 10418, +32 μg/mL added peptide / MIC of Novobiocin, E. coli NCTC 10418, +128 μg/mL added peptide: broth microdilution, Iso-Sensitest Broth, 5 × 10^5 CFU/mL, visual read-out, duplicate; for MIC of Novobiocin, E. coli NCTC 10418, +32 μg/mL added peptide: fixed 32 μg/mL peptide; for MIC of Novobiocin, E. coli NCTC 10418, +128 μg/mL added peptide: fixed 128 μg/mL peptide; for potentiation of the MIC of novobiocin, result in words: added peptide, wording covers susceptible and multi-drug resistant strain
Description: (§1) The peptides were also tested in combination with antibiotics novobiocin and norfloxacin. Novobiocin has low efficacy against Gram-negative bacteria due to its hydrophobicity, giving limited cell permeability.
(§2) The antibacterial activity of the peptides and peptide/antibiotic combinations were tested by the broth microdilution assay according to [24]. Escherichia coli NCTC 10,418 and Staphylococcus aureus NCTC 12,981 were obtained from the National Collection of Type Cultures, UK. Escherichia coli G69 was a clinical isolate as previously described.
(§3) Briefly, all bacterial strains were cultured on nutrient agar (Sigma-Aldrich, Gillingham, UK) plates and incubated for 24 h at 37 °C prior to MIC determination. In addition, known quantities of each test sample were dissolved in DMSO and then diluted in ISB (Iso- Sensitest Broth, Oxoid, Basingstoke, UK) to give a range concentration of 128–0 μg/mL, unless stated differently. […] Finally, the overnight cultures of each of the tested strains were suspended to an inoculum density of approximately 1.0 × 10^8 CFU/mL in phosphate buffered saline (PBS), consisting of 137 mM NaCl, 3 mM KCl, 8 mM Na2HPO4, and […] (Oxoid, Basingstoke, UK). The cell suspensions were standardized by adjusting the optical density to 0.1 at 600 nm (Thermo Scientific UV-Vis Spectrophotometer, Abingdon, UK) before being diluted 1:100 in ISB prior to inoculation
(§4) The assays were performed by microdilution using 96-well microtiter plates with a final inoculum of 5 × 10^5 CFU/mL and each sample was tested in duplicate in at least two independent experiments in order to confirm the reliability of the data. Results were determined by visual inspection of the wells and the presence of an evident opaque medium or white pellets were indicative of bacterial growth. The MIC values were recorded as the lowest concentration at which no bacterial growth was detected.

[2] = test system: multi-drug resistant clinical isolate E. coli G69; assay: as above; parameters: key to MIC of Novobiocin, E. coli G69, +32 μg/mL added peptide / MIC of Novobiocin, E. coli G69, +128 μg/mL added peptide: Non potentiating (NP) indicated no reduction in the MIC of novobiocin was observed; settings: for MIC of Novobiocin, E. coli G69, +128 μg/mL added peptide / MIC of Novobiocin, E. coli G69, +32 μg/mL added peptide: broth microdilution, Iso-Sensitest Broth, 5 × 10^5 CFU/mL, visual read-out, duplicate; for MIC of Novobiocin, E. coli G69, +128 μg/mL added peptide: fixed 128 μg/mL peptide; for potentiation of novobiocin against multi-drug resistant E. coli, result in words: E. coli G69, added peptide; for MIC of Novobiocin, E. coli G69, +32 μg/mL added peptide: fixed 32 μg/mL peptide
Description: as §1, §2, §3, §4

[3] = test system: multidrug resistant clinical isolate E. coli G69; assay: Norfloxacin potentiation assay (MIC of norfloxacin with fixed concentration of peptide or PAβN); settings: fixed 128 μg/mL peptide; broth microdilution; duplicate
Description: (§5) In order to gather more evidence on the potential mechanisms of action, the effects of the peptides in combination with the quinolone antibiotic norfloxacin were determined. Norfloxacin is active against Gram-negative bacteria, generally achieving entry via porin channels, but is also able to enter the bacterial cell via the membrane in porin-deficient mutants. Therefore, any membrane permeability mechanism would not be expected to have a significant effect on improving the activity of norfloxacin in porin-competent strains. This is indeed what was observed (Table S5), which added weight to our hypothesis that our very short peptides may be acting as membrane permeability enhancers for novobiocin.
as §2
as §3, with “inoculation […]” for “inoculation”
as §4, with “detected. […]” for “detected.”
(§6) potentiating novobiocin. Assays were performed at fixed concentration of 128 μg/mL against susceptible E. coli 10418 and multidrug resistant clinical isolate E. coli G69. Potentiation assay for norfloxacin was also performed in presence of 64 μg/mL of RND efflux pump inhibitor PAβN. All tests were repeated in […]
(§7) Compound Sequence MIC of norfloxacin (μg/mL) […]
(§8) inhibitor PaβN but no potentiation was observed, so the assay was not repeated at lower concentrations.

[4] = test system: susceptible E. coli 10418; assay: as above; settings: fixed 128 μg/mL peptide; broth microdilution; duplicate
Description: as §5, §2
as §3, with “inoculation […]” for “inoculation”
as §4, with “detected. […]” for “detected.”
as §6, §7, §8

Row | Substance | MIC of Novobiocin, E. coli NCTC 10418, +32 μg/mL added peptide [1] | MIC of Novobiocin, E. coli NCTC 10418, +128 μg/mL added peptide [1] | MIC of Novobiocin, E. coli G69, +128 μg/mL added peptide [2] | MIC of norfloxacin, E. coli G69, +128 μg/mL of peptide [3] | MIC of norfloxacin, E. coli 10418, +128 μg/mL of peptide [4] | potentiation of novobiocin against multi-drug resistant E. coli, result in words [2] | MIC of Novobiocin, E. coli G69, +32 μg/mL added peptide [2] | potentiation of the MIC of novobiocin, result in words [1]
1 | WRWR [Compound 4, short cationic peptide WRWR, amidated at the C-terminus] | 32 µg/mL | 2 µg/mL | NP | > 128 µg/mL | 0.062 µg/mL |  |  | 
2 | WKWKW [Compound 15, short cationic peptide WKWKW, amidated at the C-terminus] | 8 µg/mL | 4 µg/mL | 8 µg/mL | > 128 µg/mL | 0.125 µg/mL | restore the susceptibility | 128 µg/mL | 
3 | RPWPPR [Compound 23, proline-rich cationic peptide RPWPPR, amidated at the C-terminus] |  | 4 µg/mL | NP | > 128 µg/mL | 0.062 µg/mL |  |  | shows potentiation, but only against the susceptible strain
4 | RRFRF [Compound 11, short cationic peptide RRFRF, amidated at the C-terminus] |  | 64 µg/mL | 64 µg/mL |  |  |  |  | 
5 | WKWK [Compound 13, short cationic peptide WKWK, amidated at the C-terminus] |  | NP | NP |  |  |  |  | 
6 | FKFK [Compound 17, short cationic peptide FKFK, amidated at the C-terminus] |  | NP | NP |  |  |  |  | 
7 | FKPLPPH [Compound 25, proline-rich peptide FKPLPPH, C-terminal amide; commercial sample from ThermoFisher] |  | 8 µg/mL | NP | > 128 µg/mL | 0.062 µg/mL |  |  | Potentiation was restored but again only against susceptible strain
8 | FRFRF [Compound 10, short cationic peptide FRFRF, amidated at the C-terminus] |  | 2 µg/mL | 4 µg/mL |  |  | restore the susceptibility | 8 µg/mL | 
